As a reminder, the inhibition is the drop in the measured response relative to a control, in per cent.

For test [1], the system named is Aspergillus niger. Description: Spore germination inhibition. Format: cell-based. The note with it: 24 hours. The text has this: (§1) The test procedure involves the preparation of a 100, 10 or 1 ppm. suspension of test compound in water. The solutions are placed in one dram "opticlear" vials and separately inoculated with one drop of a spore suspension prepared from seven-day cultures of Aspergillus niger and 14-day old cultures of Monilinia fructicola and Stemphylium sarcinaeforme,all grown on potato-dextrose agar. The vials containing the separately inoculated solutions of test compounds are then capped and placed on a rotating tumbler for 24 hours to assure contact of the organism with the test compound. After 24 hours, the vials are removed and examined for inhibition of […].

Test [2] deals with Monilinia fructicola. In words: Spore germination inhibition. Type of test: cell-based. As to conditions: for inhibition at 1 ppm / inhibition at 10 ppm: 24 hours; for inhibition at 100 ppm: 24 h, read-out: % Inhibition of Spore Germination.
Text: as §1

The subject of test [3] is Stemphylium sarcinaeforme. In words: Spore germination inhibition. Format: cell-based. The note with it: Stemphylium sarciniforme; for inhibition at 100 ppm: 24 h, read-out: % Inhibition of Spore Germination; for inhibition at 1 ppm / inhibition at 10 ppm: 24 hours.
Text: as §1

Test [4] has as its system Aspergillus niger. Description: Agar dilution plate. Type of test: cell-based. As to conditions: An; 100 ppm, 72 hours at 23° C. The method, then: (§2) Test compounds were incorporated in a Sabouraud's dextrose agar in an amount sufficient to provide the active ingredient in a concentration of about 100 ppm. A twenty-ml. sample of the agar mixture is placed in a petri dish and permitted to solidify. An agar sample is inoculated with the test organism set forth below and then covered and incubated for a period of about 72 hours at 23° C. After incubation, growth observations are made. The test results are recorded and the test is repeated twice for the purpose of comparison.
(§3) The data obtained with a variety of test organisms is shown in the table below, and ratings are shown as 0 or 5. O indicates no control, 5 indicates 100% effectiveness of the test compound against the specified organism.
On the technique in general: In agar dilution the substance is mixed into plates at graded concentrations.

The next test deals with Fusarium lycopersici. In words: Agar dilution plate. Format: cell-based. As to conditions: Fl; 100 ppm, 72 hours at 23° C. As to the method: as §2, §3
Test [5] deals with Monilinia fructicola. Description: Agar dilution plate. Type of test: cell-based. As to conditions: Mf; 100 ppm, 72 hours at 23° C. The method, then:
as §2, §3

A further test relates to Pythium de Baryanum. In words: Agar dilution plate. Format: cell-based. As to conditions: Pd; 100 ppm, 72 hours at 23° C. As to the method: as §2, §3
The next test concerns Rhizoctonia solani. In words: Agar dilution plate. Type of test: cell-based. As to conditions: Rs; 100 ppm, 72 hours at 23° C. As to the method: as §2, §3
In test [6] the test system is Stemphylium sarcinaeforme. Description: Agar dilution plate. Type of test: cell-based. As to conditions: Ss; 100 ppm, 72 hours at 23° C. As to the method: as §2, §3
Ss= Stemphylium sarcinaeforme

The next test relates to Pseudomonas solaracaerum. Type of test: cell-based. The note with it: 100 ppm, 72 hours at 23° C.
Test [7] deals with Collectotrichum lagenarium. In words: Agar dilution plate. As to conditions: Cl; 100 ppm, 72 hours at 23° C. Format: cell-based. As to the method:
as §2, §3
Cl= Collectotrichum lagenarium

Another test relates to Verticillium albo-atrum. Description: Agar dilution plate. Type of test: cell-based. The note with it: Va; 100 ppm, 72 hours at 23° C. The method, then: as §2, §3
Va= Verticillium albo-atrum

The test system of a further test is Phytophthora infestans. Type of test: in vivo. More on the design: scale not given here. The note with it: Tomato Late Blight, five days.
The subject of the next test is Piricularia oryzae. Type of test: in vivo. More on the design: scale not given here. The note with it: Rice Blast, five days.
For a further test, the system named is Venturia inaequalis. The note with it: in vivo. Also: key: 5: clean, no disease; 4: trace of disease; 3: slight disease; 2: moderate disease; 1: severe disease; 0: like controls.

Where “and” joins values, the source holds several entries; their conditions need not be identical. Equal entries are not always repeated. Where two headings read alike, the source gives them in different places.

Regarding `CN(C)C(=S)SC(C[N+](=O)[O-])c1ccc(Cl)s1` (stereo not drawn) [Example 34, 5-Chloro-α-(nitromethyl)-2-thenyl Dimethyldithiocarbamate], the inhibition at 1 ppm (with Aspergillus niger [1]; in the test with Monilinia fructicola [2]; in test [3]) was 0% each time. Further, the inhibition at 10 ppm (in the test with Aspergillus niger [1]; in the test on Monilinia fructicola [2]; in test [3]) was 100% in each case. Further, the inhibition at 100 ppm (in the test with Aspergillus niger [1]; with Monilinia fructicola [2]; in [3]) was 100% in each case. In addition, the “Agar Dilution Plate rating” value in the test on Aspergillus niger [4] is listed as 0; in the test on Fusarium lycopersici, 0; in the test on Monilinia fructicola [5], 0; in the test with Pythium de Baryanum it was 0; with Rhizoctonia solani, 5 (100% effectiveness of the test compound against the specified organism); in [6], 0. Also, the results for the “Agar Dilution Plate rating” value (with Pseudomonas solaracaerum; in test [7]; in the test on Verticillium albo-atrum) were 0, 5 (100% effectiveness of the test compound against the specified organism) and 0, respectively. Moreover, the disease control index in the test with Phytophthora infestans (at 500 ppm) came to 3; in the test with Piricularia oryzae (at 75 ppm), 1; with Piricularia oryzae (at 500 ppm), 3.
Take `CCN(CC)C(=S)SCC(CSC(=S)N(CC)CC)[N+](=O)[O-]` [Example 2, 2-Nitrotrimethylene Diethyldithiocarbamate]: the “Agar Dilution Plate rating” value (in the test with Aspergillus niger [4]; in the test on Fusarium lycopersici; in the test on Monilinia fructicola [5]; with Pythium de Baryanum; with Rhizoctonia solani; in test [6]) was 0 each time. The “Agar Dilution Plate rating” value in the test with Pseudomonas solaracaerum is given as 0; in test [7], 5 (100% effectiveness of the test compound against the specified organism); in the test on Verticillium albo-atrum it was 0. For the same molecule, the disease control index in the test on Phytophthora infestans (150 ppm) was determined as 4; in the test with Phytophthora infestans (300 ppm) it was 4; in the test with Phytophthora infestans (600 ppm), 5; with Phytophthora infestans (1200 ppm) it was 5; in the test with Piricularia oryzae (150 ppm), 4; in the test on Piricularia oryzae (300 ppm) it was 4. Moreover, the disease control index with Piricularia oryzae (600 ppm), in the test on Piricularia oryzae (1200 ppm) and in the test with Venturia inaequalis was 5 in each case.
As for `CN(C)C(=S)SC(C[N+](=O)[O-])c1ccc(C(C[N+](=O)[O-])SC(=S)N(C)C)cc1` (stereo not drawn) [Example 20, α,α'-Bis(nitromethyl)-p-phenylenedimethylene Dimethyldithiocarbamate], the disease control index in the test on Phytophthora infestans (150 ppm) turned out to be 3; with Phytophthora infestans (300 ppm) it was 3; with Phytophthora infestans (600 ppm), 4; in the test with Phytophthora infestans (1200 ppm), 5.
Consider `COc1cccc(C(C[N+](=O)[O-])SC(=S)N(C)C)c1OC(C)=O` (stereo not drawn) [Example 21, 2-Acetoxy-3-methoxy-α-(nitromethyl)benzyl Dimethyldithiocarbamate], for which the disease control index with Phytophthora infestans (at 500 ppm) is listed as 5; in the test on Piricularia oryzae (at 75 ppm), 3; in the test on Piricularia oryzae (at 500 ppm), 4; with Venturia inaequalis it was 4.
Consider `COc1ccc(C(C[N+](=O)[O-])SC(=S)N(C)C)cc1` (stereo not drawn) [Example 29, p-Methoxy-α-(nitromethyl)benzyl Dimethyldithiocarbamate], for which the inhibition at 1 ppm (in the test on Aspergillus niger [1]; with Monilinia fructicola [2]; in [3]) was 0% each time. The inhibition at 10 ppm in the test with Aspergillus niger [1] is 0%; in the test on Monilinia fructicola [2] it was 100%; in test [3], 100%. Besides, the inhibition at 100 ppm (in the test with Aspergillus niger [1]; in the test on Monilinia fructicola [2]; in test [3]) was 100% each time. For the same molecule, the disease control index in the test on Phytophthora infestans (150 ppm) is recorded as 5; in the test on Phytophthora infestans (300 ppm), 5; in the test on Phytophthora infestans (600 ppm), 5; with Phytophthora infestans (1200 ppm) it was 5; in the test with Piricularia oryzae (150 ppm), 4; in the test with Piricularia oryzae (300 ppm), 5. In addition, the disease control index with Piricularia oryzae (600 ppm), with Piricularia oryzae (1200 ppm) and with Venturia inaequalis was 5 in each case.
On to `CCN(CC)C(=S)SC(C[N+](=O)[O-])c1ccccc1` (stereo not drawn) [Example 19, α-(Nitromethyl)benzyl Diethyldithiocarbamate], for which the “Agar Dilution Plate rating” value in the test with Aspergillus niger [4] is given as 0; in the test with Fusarium lycopersici, 0; in the test on Monilinia fructicola [5], 5 (100% effectiveness of the test compound against the specified organism); in the test on Pythium de Baryanum, 0; with Rhizoctonia solani it was 0; in [6], 0. Also, the “Agar Dilution Plate rating” value (with Pseudomonas solaracaerum; in test [7]; with Verticillium albo-atrum) was 0 throughout. Further, the disease control index in the test on Phytophthora infestans (150 ppm), in the test on Phytophthora infestans (300 ppm), in the test with Phytophthora infestans (600 ppm), in the test on Phytophthora infestans (1200 ppm), with Piricularia oryzae (150 ppm) and with Piricularia oryzae (300 ppm) was 3 in each case. Further, the disease control index was 5 with Piricularia oryzae (600 ppm); 5 in the test with Piricularia oryzae (1200 ppm); 5 and 0 in the test on Venturia inaequalis.
For `CN(C)C(=S)SC(C[N+](=O)[O-])c1ccco1` (stereo not drawn) [Example 32, α-(Nitromethyl)furfuryl Dimethyldithiocarbamate], the disease control index with Phytophthora infestans (150 ppm) is recorded as 4; in the test with Phytophthora infestans (300 ppm), 4; in the test on Phytophthora infestans (600 ppm), 5; with Phytophthora infestans (1200 ppm) it was 5; with Piricularia oryzae (150 ppm), 0; with Piricularia oryzae (300 ppm), 0. In addition, the disease control index with Piricularia oryzae (600 ppm) is 5; with Piricularia oryzae (1200 ppm) it was 5; with Venturia inaequalis, 5 and 0.
Regarding `CN(C)CC1(CSC(=S)N(C)C)SC(=S)NC1=O` (centres unmarked) [Example 12, Dimethyldithiocarbamic Acid S-Ester with 5-(Dimethylaminomethy)-5-(mercaptomethyl)rhodanine], the disease control index with Phytophthora infestans (150 ppm), with Phytophthora infestans (300 ppm), in the test on Piricularia oryzae (300 ppm) and in the test on Venturia inaequalis was 5 each time.
On to `CN(C)C(=S)SC(C[N+](=O)[O-])c1cc([N+](=O)[O-])ccc1Cl` (stereo not drawn) [Example 23, 2-Chloro-5-nitro-α-(nitromethyl)benzyl Dimethyldithiocarbamate], for which the disease control index with Phytophthora infestans (at 100 ppm) is 5; in the test with Phytophthora infestans (at 500 ppm), 5; in the test on Piricularia oryzae (at 75 ppm) it was 3; in the test on Piricularia oryzae (at 500 ppm) it was 4; in the test with Venturia inaequalis, 4.

The record behind these values is patent publication US4148795A, “Dithiocarbamate ester bactericides and fungicides” (American Cyanamid Company, priority 1976, dated 1979).
